US7728039B2, “Biphenyl and Naphthyl-Phenyl Hydroxamic Acid Derivatives” (Sigma-Tau Industrie Farmaceutiche Riunite S.p.A., priority 2005, dated 2010)
Read-outs that look alike come from different tables or passages of the source.

What was measured:
[1] = tested on: NB4 human promyelocytic leukaemia; experiment: Sulphorodamine B cytotoxicity test on NB4 cells; type: cell-based
Text: (§1) The cytotoxic effect of some biphenyl and phenylnaphthyl compounds bearing a hydroxamic acid group is reported herein. […] The chemical structures of the tested compounds of the invention and of the corresponding compounds bearing a carboxylic acid group are reported in FIG. 1. To test the effects of the compounds on cell growth, NB4 human promyelocytic leukaemia, NCI-H460 non-small cell carcinoma cells, H460/(R9A) (resistant to carboxylic acid-bearing compounds: ST1898, ST1926, ST1964), HCT-116 human colon carcinoma cells, IGROV-1 and IGROV-1/Pt (sensitive ovarian carcinoma and platinum-resistant ovarian carcinoma cells, respectively) were used. NB4 and NCI-H460 tumour cells were grown in RPMI 1640 containing 10% foetal bovine serum (GIBCO), HCT-116 tumour cells were grown in McCoy's 5A containing 10% foetal bovine serum (GIBCO), IGROV-1 and IGROV-1/Pt were grown in DMEM containing 10% foetal bovine serum (GIBCO),
(§2) Tumour cells were seeded in 96-well tissue culture plates at approximately 10% confluence and were allowed to attach and recover for at least 24 h. Varying concentrations of the drugs were then added to each well to calculate their IC50 value (the concentration which inhibits the 50% of cell survival). The plates were incubated for 24 h at 37° C. At the end of the treatment, for NB4 tumour cells in suspension, the procedure was performed as follows: medium culture was removed by centrifugation of the plates at 1600×g for 10 min and the surnatant was removed. 250 μl PBS were added, then the plates were centrifuged at 1600×g for 10 min, the surnatant was removed. 200 μl/well of medium culture RPMI 1640 containing 10% FCS were added and the plates were incubated at 37° C. for other 48 h. The plates were centrifuged again at 1600×g for 10 min, the medium culture was removed and 200 μl PBS and 50 μl of cold 80% TCA were added. The plates were incubated on ice for at least 1 h. TCA was removed, the plates were washed 3 times for immersion in distilled-water and dried on paper and at 40° C. for 5 min. Then 200 μl of 0.4% sulphorodamine B in 1% acetic acid were added. The plates were incubated at room temperature for other 30 min. Sulphorodamine B was removed, the plates were washed for immersion in 1% acetic acid for 3 times, then they were dried on paper and at 40° C. for 5 min. Then 200 μl Tris 10 mM were added, the plates were kept under stirring for 20 min. The survival cell was determined as optical density by a Multiskan spectrofluorimeter at 540 nm. For the tumour cells in adhesion (NCI-H460 and HCT-116), the procedure was as above mentioned, except that at the end of the treatment, the plates were washed by remotion of the surnatant and addition of PBS 3 times without centrifugation. Also the last day of the assay, the surnatant was removed without centrifugation.
(§3) The amount of cells killed was calculated as the percentage decrease in sulphorodamine B binding compared with control cultures. The IC50 values (the concentration which inhibits the 50% of cell survival) were calculated with the “ALLFIT” program.

[2] = tested on: NCI-H460 R9A tumour cells (H460/(R9A), resistant to carboxylic acid-bearing compounds); experiment: Sulphorodamine B cytotoxicity test on ST1926-resistant NCI-H460 R9A cells; type: cell-based; conditions: for overcoming of resistance on H460/R9A: H460/R9A versus sensitive NCI-H460, result in words; for IC50: Table 3, resistant NCI-H460 R9A, SRB, read-out: IC50 ± SD, NCI-H460 R9A
Text: as §1, §2, §3
The resistant tumour cell line NCI H460 R9A was a clone selected for the resistance to ST1926 (Table 3). To obtain the resistant tumour cell line, the sensitive NCI-H460 tumour cells were treated with 2 μM ST1926 for 24 hours and maintained in drug-free medium for a recovering time of 7 days. Then, survived cells were cultured applying a continuous selective pressure of 2 μM (10×IC50) ST1926. Resistant NCI-H460 cells were subculture for 3-4 times before increasing ST1926 concentration to 4 μM (20×IC50). Survived cells were seeded in 96-well plates to isolate resistant cells clones and maintained in complete medium with 4 μM of ST1926. The tumour cell line was maintained at least for one week, before seeding for SRB cytotoxicity assay, in drug-free medium.
To evaluate the effect of the compound on survival cells, the sulphorodamine B test was used. […]

[3] = tested on: NCI-H460 non-small cell carcinoma cells; experiment: Sulphorodamine B cytotoxicity test on NCI-H460 cells; type: cell-based; conditions: SRB, read-out: IC50 ± SD, NCI-H460
Protocol: The chemical structures of the tested compounds of the invention and of the corresponding compounds bearing a carboxylic acid group are reported in FIG. 1. […] NB4 and NCI-H460 tumour cells were grown in RPMI 1640 containing 10% foetal bovine serum (GIBCO), HCT-116 tumour cells were grown in McCoy's 5A containing 10% foetal bovine serum (GIBCO), IGROV-1 and IGROV-1/Pt were grown in DMEM containing 10% foetal bovine serum (GIBCO),
as §2, §3

[4] = tested on: NB4 promyelocytic leukaemia cells; experiment: Differentiation of NB4 tumour cells by nitroblue tetrazolium (NBT) reduction, with or without ATRA; type: cell-based, human; conditions: 3 days, NBT-reducing activity; for AC50: combined with suboptimal ATRA (5 nM); for Differentiation AC50: compound alone (without ATRA)
Text: Relevant aspects of the differentiation program set in motion by ATRA in APL cells can be reproduced in primary cultures of leukemic blasts and in the derived NB4 cell line, which is a unique model for the study of the pharmacologic activity of ATRA and derivatives. Pharmacological concentrations of ATRA arrest the growth of NB4 blasts and differentiate them into cells that resemble mature neutrophils. This is followed by a slow process of apoptosis. […] In particular, the differentiation of NB4 tumour cells induced by the compounds was determined by nitroblue tetrazolium (NBT) reduction. NB4 promyelocytic leukaemia cells were seeded at a density of 150000 cells/ml in RPMI 1640 medium containing 10% FCS. To measure the cytodifferentiating effect of the molecules, tumour cells were treated with the compounds at different concentrations starting from at least 0.4 μM to 0.01 μM, whereas to measure the enhancing action of the molecules of ATRA activity, NB4 cells were treated with increasing concentrations of the molecules in the presence or absence of ATRA at a suboptimal concentration (5 nM).
Tumour cells were incubated for 3 days at 37° C. without replacing the medium culture. To measure the prodifferentiative effect, 500,000 cells were collected, centrifuged and resuspended in 1 ml of RPMI 1640 medium containing 10% FCS, 1 mg/ml of nitroblue tetrazolium (NBT) and 100 ng of PMA (4-phorbol-12-myristate-13-acetate). The tumour cells resuspended were incubated at 37° C. for 60 min. At the end of the incubation, tumour cells were centrifuged and the pellet was resuspended in 1 ml of PBS containing Triton ×100 at 10%. The samples were sonicated and the absorbance was determined at 540 nm with a spectrophotometer. Differentiation of tumor cells as AC50 (activating concentration) was evaluated as the concentration of the compound giving 50% of the maximal induction of NBT-reducing activity with or without ATRA.

[5] = tested on: IGROV-1/Pt (platinum-resistant ovarian carcinoma cells); experiment: Sulphorodamine B cytotoxicity test on IGROV-1/Pt cells; type: cell-based; conditions: read-out: IC50 ± SD, IGROV-1/Pt
Text: as §1, §2, §3

[6] = tested on: HCT-116 human colon carcinoma cells; experiment: Sulphorodamine B cytotoxicity test on HCT-116 cells; type: cell-based; conditions: Table 2, SRB, read-out: IC50 ± SD, HCT-116
Text: as §1, §2, §3

[7] = tested on: IGROV-1 (sensitive ovarian carcinoma cells); experiment: Sulphorodamine B cytotoxicity test on IGROV-1 cells; type: cell-based; conditions: read-out: IC50 ± SD, IGROV-1
Text: as §1, §2, §3

| Compound | IC50 ([1]; Table 4, NB4 tumour cells, compound alone, read-out: IC50 (μM ± SD)) [µM] | overcoming of resistance on H460/R9A [2] | RI (resistance index) ([2]; IC50 on resistant tumour cell line/IC50 on sensitive tumour cell line (NCI-H460 R9A / NCI-H460)) | IC50 [2] [nM] | IC50 ([3]; Table 2, NCI-H460) [nM] | IC50 ([3]; Table 3, sensitive NCI-H460) [nM] | AC50 [4] [nM] | Differentiation AC50 [4] | IC50 ([5]; Table 2, SRB) [nM] | IC50 [6] [nM] | IC50 ([7]; Table 2, SRB) [nM] | IC50 ([1]; Homo sapiens, NB-4, Table 1, NB4, 24 h treatment, 48 h recovery, SRB, read-out: IC50 ± SD, NB4) [µM] | IC50 ([1]; Homo sapiens, NB-4, Table 4, NB4 tumour cells, compound alone, read-out: IC50 (μM ± SD)) [µM] | IC50 ([2]; Homo sapiens) [nM] | IC50 ([3]; Homo sapiens, NCI-H460, Table 2, NCI-H460) [nM] | AC50 ([4]; Homo sapiens, 72 h) [nM] | IC50 ([5]; Homo sapiens, Table 1, SRB) [nM] | IC50 ([6]; Homo sapiens) [nM] | IC50 ([7]; Homo sapiens, Table 1, SRB) [nM] |
| --- | --- | --- | --- | --- | --- | --- | --- | --- | --- | --- | --- | --- | --- | --- | --- | --- | --- | --- | --- |
| O=C(NO)c1ccc2cc(-c3ccc(O)c(C45CC6CC(CC(C6)C4)C5)c3)ccc2c1 [ST2142, 6-[3-1-(adamantyl)-4-hydroxyphenyl]-naphthalene-2-carboxylic acid N-hydroxyamide] | 2.4 ± 0.08 | completely overcame the resistance | 2.2 | 2200 ± 100 | 1000 ± 60 | 1000 ± 60 | 310 | no differentiation | 1100 ± 30 | 2900 ± 200 | 650 ± 100 |  |  |  |  |  |  |  |  |
| O=C(/C=C/c1ccc(-c2ccc(O)cc2)cc1)NO [ST2782, E-3-(4′-hydroxy-biphenyl-4-yl)-N-hydroxy-acrylamide] |  | the same characteristic are retained |  |  |  |  |  | no differentiation |  |  |  | 2.3 ± 0.02 | 2.3 ± 0.02 | 1800 ± 160 | 6000 ± 900 | 2470 | 7700 ± 1600 | 6700 ± 700 | 8800 ± 3000 |
